The values below come from patent US6479527B1, “Bicyclic pyrrole derivatives as MCP-1 inhibitors” (AstraZeneca UK Limited, priority 1998, dated 2002).

Read-outs that look alike come from different tables or passages of the source.

Assay [1] deals with RANTES induced chemotaxis of THP-1 cells. The experiment in a line: RANTES chemotaxis assay. The assay is classed as cell-based. Particulars: Homo sapiens, 2 nM RANTES as chemoattractant. Here is the method: (§1) c) hMCP-1 Mediated Chemotaxis and RANTES Assay.
(§2) In vitro chemotaxis assays were performed using either the human monocytic cell line THP-1 or peripheral blood mixed monocytes obtained from fresh human blood purified by erythrocyte sedimentation followed by density gradient centrifugation over 9.6% (w/v) sodium metrizoate and 5.6% (w/v) polysaccharide, density 1.077 g/ml (Lymphoprep™ Nycomed). Cell migration through polycarbonate membranes was measured by enumerating those passing through either directly by Coulter counting or indirectly by use of a colourimetric viability assay measuring the cleavage of a tetrazolium salt by the mitochondrial respiratory chain (Scudiero D. A. et al. 1988, Cancer Res., 48, 4827-4833).
(§3) Chemoattractants were introduced into a 96-well microtiter plate which forms the lower well of a chemotaxis chamber fitted with a PVP-free 5 μm poresize polycarbonate adhesive framed filter membrane (NeuroProbe MB series, Cabin John, Md. 20818, USA) according to the manufacturer's instructions. The chemoattractant was diluted as appropriate in synthetic cell culture medium, RPMI 1640 (Gibco) or supplemented with 2 mM glutamine and 0.5% BSA, or alternatively with HBSS with Ca2+ and Mg2+ without Phenol Red (Gibco) plus 0.1% BSA. […] The plate was incubated at 37° C. for 3 h and the absorbance of the soluble formazan product was read on a microtitre plate reader at 450 nm. […]

Assay [2] addresses T1, MCP-1 receptor B (CCR2B) (Homo sapiens, UniProt P41597).
T1 construct: expressed in transfected cells; host or cells: CHO-K1 (clone 7, CHO-CCR2B), membrane fragments
T1 sequence (P41597 1-360 isoform P41597-2): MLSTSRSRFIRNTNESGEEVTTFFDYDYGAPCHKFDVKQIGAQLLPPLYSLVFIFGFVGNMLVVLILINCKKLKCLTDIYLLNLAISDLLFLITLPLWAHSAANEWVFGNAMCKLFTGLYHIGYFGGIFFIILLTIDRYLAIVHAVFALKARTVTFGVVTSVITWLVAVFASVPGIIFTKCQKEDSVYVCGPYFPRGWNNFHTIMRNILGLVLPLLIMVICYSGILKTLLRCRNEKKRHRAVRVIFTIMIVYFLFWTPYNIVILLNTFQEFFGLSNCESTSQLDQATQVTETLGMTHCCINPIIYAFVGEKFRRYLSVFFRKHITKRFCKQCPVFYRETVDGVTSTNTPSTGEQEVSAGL
The assay is described as follows: hMCP-1 receptor-binding assay. An excerpt: a) hMCP-1 Receptor-binding Assay i) Clonning and expression of hMCP-1receptor
The MCP-1 receptor B (CCR^2B) cDNA was cloned by PCR from THP-1 cell RNA using suitable oligonucleotide primers based on the published MCP-1 receptor sequences (Charo et al., 1994, Proc. Natl. Acad Sci. USA, 91, 2752). The resulting PCR products were cloned into vector PCR-II™ (InVitrogen, San Diego, Calif.). Error free CCR2B cDNA was subcloned as a Hind III-Not I fragment into the eukaryotic expression vector pCDNA3 (InVitrogen) to generate pCDNA3/CC-CKR2A and pCDNA3/CCR2B respectively.
Linearised pCDNA3/CCR2B DNA was transfected into CHO-K1 cells by calcium phosphate precipitation (Wigler et al., 1979, Cell, 16, 777). Transfected cells were selected by the addition of Geneticin Sulphate (G418, Gibco BRL) at 1 mg/ml, 24 hours after the cells had been transfected. Preparation of RNA and Northern blotting were carried out as described previously (Needham et al., 1995, Prot. Express. Purific., 6, 134). CHO-K1 clone 7 (CHO-CCR^2B) was identified as the highest MCP-1 receptor B expressor. […]
ii) Preparation of membrane fragments […]
^125I MCP-1 was prepared using Bolton and Hunter conjugation (Bolton et al., 1973, Biochem. J., 133, 529; Amersham International plc]. Equilibrium binding assays were carried out using the method of Ernst et al., 1994, J. Immunol., 152, 3541. Briefly, varying amounts of ^125I-labeled MCP-1 were added to […] of purified CHO-CCR2B cell membranes in […] of Binding Buffer. After 1 hour incubation at room temperature the binding reaction mixtures were filtered and washed 5 times through a plate washer (Packard Harvester Filtermate™ 196). Scintillation fluid (25 μl, Microscint™-20, a high efficiency liquid scintillation counting cocktail for aqueous samples) was added to each well and the plate was covered with plate sealer and counted (Packard Top Count™). […] Non-specific binding was determined by the inclusion of a 200-fold molar excess of unlabelled MCP-1 in the reaction. […]

Assay [3] relates to hMCP-1 mediated chemotaxis of THP-1 cells. The assay is described as follows: hMCP-1 mediated chemotaxis assay. The assay is classed as cell-based, human. The protocol:
as §1, §2, §3

Assay [4] relates to THP-1 cells. The assay is described as follows: MCP-1 mediated calcium flux in THP-1 cells. It is filed as cell-based, human. Particulars: stimulation of THP-1 cells with hMCP-1, approximate, from dose response curves; read-out: EC50 for transient rise in [Ca2+]i. The protocol: b) MCP-1 Mediated Calcium Flux in THP-1 Cells
The human monocytic cell line THP-1 was grown in a synthetic cell culture medium RPMI 1640 supplemented with 10% foetal calf serum, 2 mM glutamine and Penicillin-Streptomycin (at 50 μg streptomycin/ml, Gibco BRL). THP-1 cells were washed in HBSS (lacking Ca^2+ and Mg^2+) +1 mg/ml BSA and resuspended in the same buffer at a density of 3×10^6 cells/ml. The cells were then loaded with […]-FURA-2/AM for 30 min at 37° C., washed twice in HBSS, and resuspended at 1×10^6 cells/ml. […] The cuvette was placed in a fluorescence spectrophotometer (Perkin Elmer, Norwalk, Conn.) and preincubated for 4 min at 37° C. with stirring. Fluorescence was recorded over 70 sec and cells were stimulated by addition of hMCP-1 to the cuvette after 10 sec. [Ca^2+]i was measured by excitation at 340 nm and 380 nm alternately and subsequent measurement of the intensity of the fluorescence emission at 510 nm.
where the Kd for FURA-2 Ca^2+ complex at 37° C. was taken to be […]. Rmax is the maximal fluorescence ratio determined after addition of […] lonomycin, Rmin is the minimal ratio determined by the subsequent addition of a Ca^2+ free solution containing 5 mM EGTA, and Sf2/Sb2 is the ratio of fluorescence values at 380 nm excitation determined at Rmin and Rmax, respectively. […]
A general note: Calcium assays in cells follow changes in intracellular calcium, usually with a dye or a luminescent sensor.

As usually defined, the IC50 is the concentration needed to halve the response being measured. `O=C(O)c1cc2sccc2n1Cc1ccc(Cl)c(Cl)c1` [Compound No. 8, 4-(3,4-Dichlorobenzyl)thieno[3,2-b]pyrrole-5-carboxylic acid] had an IC50 in assay [1] of 2660 nM.
For the compound `Nc1cccc(-c2cc3c(cc(C(=O)O)n3Cc3ccc(Cl)c(Cl)c3)s2)c1` [Compound No. 13, 2-(3-Aminophenyl)-4-(3,4-dichlorobenzyl)thieno[3,2-b]pyrrole-5-carboxylic acid], in assay [2] (competition with 100 pM labelled MCP-1, CHO-CCR2B cell membranes, read-out: IC50 in the hMCP-1 receptor binding assay), the IC50 came to 8300 nM.
As to `O=C(O)c1cc2occc2n1S(=O)(=O)c1ccc(Cl)c(Cl)c1` [Compound No. 20, 4-(3,4-Dichlorobenzenesulfonyl)furo[3,2-b]pyrrole-5-carboxylic acid], in assay [3] (Homo sapiens, 1 nM MCP-1 as chemoattractant, THP-1 cells), the IC50 was 1660 nM.
As usually defined, the EC50 is the concentration giving half of the maximal effect. By Kd is commonly meant the constant that tells how readily two partners part at equilibrium. A higher Kd goes with lower affinity. As for “MCP-1: Monocyte Chemoattractant Protein-1, a C—C chemokine; ligand of the CCR2 receptor”, in assay [4], the EC50 was approximately 2 nM. In addition, the IC50 in assay [2] (membrane fragments from CHO-CCR2B cells, cold competition with 125I-labeled MCP-1, read-out: IC50 of MCP-1 binding to CCR2B) came to 0.11 nM. The compound also returned a Kd in assay [2] (membrane fragments from CHO-CCR2B cells, equilibrium binding) of 0.12 nM. For the same compound, in assay [3] (hMCP-1 as chemoattractant, concentration dependent cell migration), the “concentration of maximal cell migration (biphasic response)” value is on record as 0.5-1.0 nm.
